Results: PubChem BioAssay AID2060889 (Molecular Pharmacology Branch, DTP, NCI, 2025)

Tested on: LG0567-F671-PDC complex spheroids viability
Test: Anticancer human tumor LG0567-F671-PDC patient-derived lung adenocarcinoma cell line growth inhibition [RAS]
Conditions: for viability, T/C: stronger effect = lower value; active = viability on the fitted dose curve at most 10% of control; inactive = the rest
Summary of the method: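 Multi-cell-type spheroids: tumor cells plus HUVEC endothelial cells and mesenchymal stem cells. RAS-pathway inhibitors were combined with targeted agents, each dosed in half-log steps down from clinical Cmax, or from 10 microM when Cmax was unknown.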
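Note: spheroids exposed to compound for seven days before readout.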
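Throughout, for IC50: luminescence signal used as a proxy for viable cells.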

CCn1c(-c2cccnc2C(C)OC)c2c3cc(ccc31)N1CCOC(CC(NC(=O)C(C(C)C)N(C)C(=O)C3(F)CCN(C(=O)C#CC(C)(C)N(C)C)CC3)C(=O)N3CCCC(N3)C(=O)OCC(C)(C)C2)C1 (centres undefined)
10.3% [middle of 8 runs]: viability, T/C (compound 0.3 µM)
inactive: viability, T/C (compound 0.000949 µM) 15.2% [middle of 8 runs] | viability, T/C (compound 0.003 µM) 15% [middle of 8 runs] | viability, T/C (compound 0.00949 µM) 15.1% [middle of 7 runs] | viability, T/C (compound 0.03 µM) 13.5% [middle of 8 runs] | viability, T/C (compound 0.0949 µM) 12.2% [middle of 8 runs]
< 0.949 nM: IC50 (compound alone, run of 08/20/2024)

Nc1ccn(C2OC(CO)C(O)C2(F)F)c(=O)n1 (centres undefined) + CCn1c(-c2cc(N3CCN(C)CC3)cnc2C(C)OC)c2c3cc(ccc31)-c1csc(n1)CC(NC(=O)C1CC1C)C(=O)N1CCCC(N1)C(=O)OCC(C)(C)C2
active: viability, T/C (second compound 0.00949 µM, first compound 0.00316 µM) 6.32% | viability, T/C (second compound 0.00949 µM, first compound 0.01 µM) 6.32% | viability, T/C (second compound 0.00949 µM, first compound 0.0316 µM) 6.59% | viability, T/C (second compound 0.00949 µM, first compound 0.1 µM) 6.78% | viability, T/C (second compound 0.00949 µM, first compound 0.316 µM) 6.01% | viability, T/C (second compound 0.00949 µM, first compound 1 µM) 7.27% | viability, T/C (second compound 0.03 µM, first compound 0.00316 µM) 6.63% | viability, T/C (second compound 0.03 µM, first compound 0.01 µM) 4.5% | viability, T/C (second compound 0.03 µM, first compound 0.0316 µM) 4.58% | viability, T/C (second compound 0.03 µM, first compound 0.1 µM) 4.82% | viability, T/C (second compound 0.03 µM, first compound 0.316 µM) 5.13% | viability, T/C (second compound 0.03 µM, first compound 1 µM) 5.29% | viability, T/C (second compound 0.0949 µM, first compound 0.00316 µM) 3.22% | viability, T/C (second compound 0.0949 µM, first compound 0.01 µM) 3.54% | viability, T/C (second compound 0.0949 µM, first compound 0.0316 µM) 3.82% | viability, T/C (second compound 0.0949 µM, first compound 0.1 µM) 3.99% | viability, T/C (second compound 0.0949 µM, first compound 0.316 µM) 4.28% | viability, T/C (second compound 0.0949 µM, first compound 1 µM) 5.17% | viability, T/C (second compound 0.3 µM, first compound 0.00316 µM) 2.59% | viability, T/C (second compound 0.3 µM, first compound 0.01 µM) 2.74% | viability, T/C (second compound 0.3 µM, first compound 0.0316 µM) 3.25% | viability, T/C (second compound 0.3 µM, first compound 0.1 µM) 3.47% | viability, T/C (second compound 0.3 µM, first compound 0.316 µM) 4.08% | viability, T/C (second compound 0.3 µM, first compound 1 µM) 3.48%
inactive: viability, T/C (second compound 0.000949 µM, first compound 0.00316 µM) 23.8% | viability, T/C (second compound 0.000949 µM, first compound 0.01 µM) 22.4% | viability, T/C (second compound 0.000949 µM, first compound 0.0316 µM) 22.1% | viability, T/C (second compound 0.000949 µM, first compound 0.1 µM) 22.6% | viability, T/C (second compound 0.000949 µM, first compound 0.316 µM) 20.7% | viability, T/C (second compound 0.000949 µM, first compound 1 µM) 22% | viability, T/C (second compound 0.003 µM, first compound 0.00316 µM) 11% | viability, T/C (second compound 0.003 µM, first compound 0.01 µM) 10.7% | viability, T/C (second compound 0.003 µM, first compound 0.0316 µM) 10.6% | viability, T/C (second compound 0.003 µM, first compound 0.1 µM) 8.86% | viability, T/C (second compound 0.003 µM, first compound 0.316 µM) 11.5% | viability, T/C (second compound 0.003 µM, first compound 1 µM) 12.4%
< 3.16 nM: IC50 (curve of first compound, second compound 0.000949 µM) | IC50 (curve of first compound, second compound 0.003 µM) | IC50 (curve of first compound, second compound 0.00949 µM) | IC50 (curve of first compound, second compound 0.03 µM) | IC50 (curve of first compound, second compound 0.0949 µM) | IC50 (curve of first compound, second compound 0.3 µM)
